This is an account of results in patent US20240301319A1, “PERFUMING COMPOSITIONS” (FIRMNICH SA, priority 2017, published 2024).

The nature of data set [1]: Volatility of perfuming compounds (Tables 4 to 10), with top/middle/bottom note type. The data set is classed as physicochemical. Put shortly:
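Note type follows from air volatility (μg/l): bottom 49–0.1, middle 99–50, top 70,000–100. Compounds are listed within watery, green, fruity, citrus, sweet, gourmand and woody families.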

Data set [2] can be described thus: Odor threshold and odor value of perfuming compounds (Tables 4 to 10). Conditions: for Odor Threshold (μg/l air): perfuming compounds having a green note.
Data set [3] is described as follows: Log P (n-octanol/water) of perfuming compounds (Tables 4 to 10).
Setting [4] is: note type (Top/Middle/Bottom) by volatility, perfuming compounds having a green note.
Setting [5] is: perfuming compounds having a green note.
The mark [6] stands for this setting: n-octanol/water, perfuming compounds having a green note.
Setting [7] is: Table 8, perfuming compounds having a sweet note.
The mark [8] stands for this setting: Table 8, perfuming compounds having a sweet note, note type by volatility.
The mark [9] stands for this setting: Table 6, perfuming compounds having a fruity note.
Setting [10] is: Table 6, perfuming compounds having a fruity note, note type by volatility.
Setting [11] is: Table 9, perfuming compounds having a gourmand note, note type by volatility.

Counter-ions that a name gives are not always drawn.

`CCCCCCCCCCO` [1-DECANOL]: the Type result in data set [1] (setting [4]) is reported as “Bottom”. For the same molecule, the “Volatility (μg/l air)” value in data set [1] (setting [5]) was 31.90 μg/l air. For the same molecule, the “Odor Threshold (μg/l air)” value in data set [2] is on record as 1.13E−02 μg/l air. Moreover, the “Log P (n-octanol/water)” value in data set [3] (setting [6]) came to 4.10.
The matching figures for `CCCOC(C)OCCc1ccccc1` (stereo not drawn) [1-PHENYL-2-(1-PROPOXYETHOXY)ETHANE]: “Middle”, 59.63 μg/l air, 1.52E−03 μg/l air and 3.58.
Turning to `c1ccc(CCCc2ccccn2)cc1` [2-(3-PHENYLPROPYL)PYRIDINE], the Type entry in data set [1] (setting [4]) is “Bottom”. The “Volatility (μg/l air)” value in data set [1] (setting [5]) came out at 3.83 μg/l air. The “Odor Threshold (μg/l air)” value in data set [2] came out at 1.29E−06 μg/l air. Besides, the “Log P (n-octanol/water)” value in data set [3] (setting [6]) is recorded as 2.87.
Molecule `SCc1ccco1` [2-FURANMETHANETHIOL] displayed a Volatility in data set [1] (setting [7]) of 29677.31 μg/l air. Further, in data set [1] (setting [8]), the Type entry is listed as “Top”. Further, in data set [2] (setting [7]), the “Odor Threshold” value was 1.43E−09 μg/l air and the “Odor Value” is listed as 2.08E+13. The “Log P (n-octanol/water)” value in data set [3] (setting [7]) was 1.70.
`CCCC(C)COC(=O)C(C)CCC` (stereo not drawn) [2-METHYLPENTYL 2-METHYLPENTANOATE]: in data set [1] (setting [9]), the Volatility is given as 450.33 μg/l air. The Type result in data set [1] (setting [10]) is “TOP (perfuming compounds having a volatility ranging from 70,000 to 100 μg/l in air are referred to as “top notes”)”; in data set [1] (setting [4]) it was “Top”. Also, the “Volatility (μg/l air)” value in data set [1] (setting [5]) was determined as 450.33 μg/l air. The “Odor Threshold (μg/l air)” value in data set [2] amounted to 2.41E−01 μg/l air. The “Log P (n-octanol/water)” value in data set [3] (setting [9]) and in data set [3] (setting [6]) was 5.13 each time.
Take `CCCC=C1OC(=O)c2ccccc21` [3-BUTYLIDENE-1-BENZO[C]FURANONE]: the Volatility in data set [1] (setting [7]) turned out to be 14.37 μg/l air; in data set [1] (Table 9, gourmand note) it was 14.37 μg/l air. Besides, the Type entry in data set [1] (setting [8]) and in data set [1] (setting [11]) was “Bottom” each time. Besides, the “Odor Threshold” value in data set [2] (setting [7]) came to 8.65E−04 μg/l air; in data set [2] (Table 9, gourmand note), 8.65E−04 μg/l air. Besides, the “Odor Value” in data set [2] (setting [7]) is 1.66E+04. The “Log P (n-octanol/water)” value in data set [3] (setting [7]) is listed as 3.12; in data set [3] (Table 9, gourmand note), 3.12.
Consider `CC(=O)CCc1ccc(O)cc1` [4-(4-HYDROXY-1-PHENYL)-2-BUTANONE], for which the Volatility in data set [1] (setting [9]) is reported as 0.36 μg/l air. Also, the Type result in data set [1] (setting [10]) is given as “Bottom”. In addition, in data set [2] (setting [9]), the “Odor Threshold” value stood at 2.05E−07 μg/l air and the “Odor Value” was determined as 1.75E+06. Moreover, the “Log P (n-octanol/water)” value in data set [3] (setting [9]) is recorded as 0.93.
Consider `COc1ccc(CCC(C)=O)cc1` [4-(4-METHOXYPHENYL)-2-BUTANONE], for which the Volatility in data set [1] (setting [9]) came to 5.58 μg/l air; in data set [1] (setting [7]), 5.58 μg/l air; in data set [1] (Table 9, gourmand note), 5.58 μg/l air. The Type result in data set [1] (setting [10]), in data set [1] (setting [8]) and in data set [1] (setting [11]) was “Bottom” in each case. Besides, the “Odor Threshold” value in data set [2] (setting [9]) is 5.88E−06 μg/l air; in data set [2] (setting [7]), 5.88E−06 μg/l air; in data set [2] (Table 9, gourmand note), 5.88E−06 μg/l air. Besides, the “Odor Value” in data set [2] (setting [9]) and in data set [2] (setting [7]) was 9.49E+05 throughout. Moreover, the “Log P (n-octanol/water)” value in data set [3] (setting [9]) came to 2.06; in data set [3] (setting [7]) it was 2.06; in data set [3] (Table 9, gourmand note) it was 2.06.
With `COc1ccc(C=O)cc1` [4-METHOXYBENZALDEHYDE], the Type entry in data set [1] (setting [4]) was “Middle”. The “Volatility (μg/l air)” value in data set [1] (setting [5]) is given as 98.47 μg/l air. In data set [2], the “Odor Threshold (μg/l air)” value amounted to 1.81E−05 μg/l air. Besides, the “Log P (n-octanol/water)” value in data set [3] (setting [6]) was 1.56.
On to `CC(=O)CCc1ccccc1` [4-PHENYL-2-BUTANONE], for which, in data set [1] (setting [9]), the Volatility was 176.55 μg/l air. For the same molecule, the Type result in data set [1] (setting [10]) was “TOP (perfuming compounds having a volatility ranging from 70,000 to 100 μg/l in air are referred to as “top notes”)”; in data set [1] (setting [4]) it was “Top”. Moreover, the “Volatility (μg/l air)” value in data set [1] (setting [5]) is 176.55 μg/l air. In addition, the “Odor Threshold (μg/l air)” value in data set [2] was determined as 2.22E−04 μg/l air. Further, the “Log P (n-octanol/water)” value in data set [3] (setting [9]) and in data set [3] (setting [6]) was 1.79 in each case.
In data set [1] (setting [9]), `CC(=O)CCC=C(C)C` [6-METHYL-5-HEPTEN-2-ONE] gave a Volatility of 5775.94 μg/l air. In addition, the results for the Type result in data set [1] (setting [10]) and in data set [1] (setting [4]) were “TOP (perfuming compounds having a volatility ranging from 70,000 to 100 μg/l in air are referred to as “top notes”)” and “Top”, respectively. In addition, the “Volatility (μg/l air)” value in data set [1] (setting [5]) is recorded as 5775.94 μg/l air. Besides, the “Odor Threshold (μg/l air)” value in data set [2] is listed as 1.06E−01 μg/l air. In addition, the “Log P (n-octanol/water)” value in data set [3] (setting [9]) and in data set [3] (setting [6]) was 2.05 in each case.
With `COC(Cc1ccccc1)OC` [(2,2-DIMETHOXYETHYL)BENZENE], the Type result in data set [1] (setting [4]) is on record as “Top”. Moreover, the “Volatility (μg/l air)” value in data set [1] (setting [5]) was 456.97 μg/l air. Moreover, in data set [2], the “Odor Threshold (μg/l air)” value is listed as 4.55E−02 μg/l air. Moreover, the “Log P (n-octanol/water)” value in data set [3] (setting [6]) was 2.10.
In the same order, the values of `COCCc1ccccc1` [(2-METHOXYETHYL)BENZENE] are “Top”, 1239.07 μg/l air, 6.32E−04 μg/l air and 2.33.
For `N#C/C=C/c1ccccc1` [(E)-3-PHENYL-2-PROPENENITRILE], the Type entry in data set [1] (Table 10, perfuming compounds having a woody note, note type by volatility) is listed as “Middle”. In data set [1] (Table 10, woody note), the Volatility is listed as 66.00 μg/l air. The “Odor Threshold” value in data set [2] (Table 10, woody note) stood at 8.97E−05 μg/l air. For the same molecule, the “Log P (n-octanol/water)” value in data set [3] (Table 10, woody note) is listed as 1.98.
Take `C=CCOC(=O)COc1ccccc1` [ALLYL PHENOXYACETATE]: the Volatility in data set [1] (setting [9]) is listed as 9.94 μg/l air. Also, the Type entry in data set [1] (setting [10]) and in data set [1] (setting [4]) was “Bottom” each time. In data set [1] (setting [5]), the “Volatility (μg/l air)” value is listed as 9.94 μg/l air. Further, in data set [2] (setting [9]), the “Odor Threshold” value is given as 1.22E−03 μg/l air. Also, in data set [2] (setting [9]), the “Odor Value” was determined as 8.13E+03. For the same molecule, the “Odor Threshold (μg/l air)” value in data set [2] is on record as 1.22E−03 μg/l air. The “Log P (n-octanol/water)” value in data set [3] (setting [9]) and in data set [3] (setting [6]) was 2.04 throughout.
Turning to `CC(C)CC(=O)OCc1ccccc1` [BENZYL 3-METHYLBUTANOATE], the Volatility in data set [1] (setting [9]) and in data set [1] (setting [7]) was 63.56 μg/l air each time. The Type entry in data set [1] (setting [10]) and in data set [1] (setting [8]) was “Middle” throughout. Moreover, the “Odor Threshold” value in data set [2] (setting [9]) and in data set [2] (setting [7]) was 7.31E−03 μg/l air in each case. In addition, the “Odor Value” in data set [2] (setting [9]) and in data set [2] (setting [7]) was 8.70E+03 each time. In addition, the “Log P (n-octanol/water)” value in data set [3] (setting [9]) and in data set [3] (setting [7]) was 3.45 throughout.
As to `O=COCc1ccccc1` [BENZYL FORMATE], the Type result in data set [1] (setting [4]) is given as “Top”. Moreover, the “Volatility (μg/l air)” value in data set [1] (setting [5]) turned out to be 1339.53 μg/l air. For the same molecule, the “Odor Threshold (μg/l air)” value in data set [2] came out at 3.23E−01 μg/l air. Also, the “Log P (n-octanol/water)” value in data set [3] (setting [6]) stood at 1.76.
